RP-LC retention time data for 80 compounds are collected here from the METLIN SMRT retention time set (Domingo-Almenara et al. 2019).

This data set in a line: gradient 5% acetonitrile 3 min, to 50% in 2 min, to 85% in 15 min, held 3 min, 100 µL/min. Particulars: column: Zorbax Extend-C18 2.1 x 50 mm; eluents: water / acetonitrile, 0.1% formic acid. The method, boiled down:
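Pure standards were run in mixtures of ~100 molecules by HPLC coupled to a quadrupole time-of-flight mass spectrometer. The column was a Zorbax Extend-C18 (2.1 × 50 mm, 1.8 μm) at 100 μL/min, with water and acetonitrile each containing 0.1% formic acid, in positive and negative ionization mode. Dead and dwell volumes were 40 μL and 900 μL. Retention time was taken from computationally picked adduct peaks, each manually inspected, with data collected over 3 months.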
Consider `CCn1nccc1C(=O)NC1CCN(C2=NS(=O)(=O)C(c3ccccc3)=C2C)CC1`, for which the RP-LC retention time amounted to 764 s.

As to `CCOC(=O)c1cn(Cc2ccccc2)c2ccccc2c1=O`, the RP-LC retention time was 769 s.

For `COc1cc(CC(=O)N2CCN(c3cc(C)n4cnnc4n3)CC2)cc(OC)c1`, the RP-LC retention time was 607 s.

In turn, `COCCCNC(=O)C1c2ccccc2C(=O)N1Cc1cccc(Br)c1` (stereo not given) returned an RP-LC retention time of 750 s.

The compound `CC(Oc1ccccc1Cl)C(=O)NCCn1cnc(-c2ccccc2)cc1=O` (stereo not given) had an RP-LC retention time of 790 s.

Consider `CC(C)CCN1C[C@@H](CO)[C@H](c2nc(-c3cccnc3)no2)C1`, for which the RP-LC retention time came to 583 s.

In turn, `CCc1ccc(OCC(=O)OCCNC(=O)c2ccncc2)cc1` yielded an RP-LC retention time of 673 s.

In turn, `Cc1ccc(C)c(Cn2nc3c(S(=O)(=O)N4CCCCCC4)cccn3c2=O)c1` gave an RP-LC retention time of 1050 s.

As to `Cc1nc(C2CCOCC2)n(C2CCN(S(=O)(=O)c3cccnc3)C2)n1` (stereo not given), the RP-LC retention time turned out to be 622 s.

In turn, `O=C(O)c1nnn(-c2ccc(F)cc2)c1-c1ccncc1` came in with an RP-LC retention time of 612 s.

The compound `CCCNc1nc(-c2ccc(OC)cc2)nc2ccccc12` came in with an RP-LC retention time of 734 s.

As to `CC(=O)N1c2ccccc2CC1c1nc(C2CC2)no1` (stereo not given), the RP-LC retention time turned out to be 820 s.

For the compound `O=C(NCc1ccc(F)cc1F)c1cnn2c(-c3ccc4c(c3)OCO4)ccnc12`, the RP-LC retention time came to 1000 s.

`Cc1cccn2cc(C(=O)NCCC3=CCCCC3)nc12`: the RP-LC retention time was 860 s.

Consider `COCc1c(C(=O)O)nnn1-c1ccc2c(c1)CCC2`, for which the RP-LC retention time was found to be 777 s.

As for `O=C(Nc1nc2ccc(F)cc2s1)c1ccccc1Br`, the RP-LC retention time stood at 900 s.

In turn, `CN1C(=O)c2cc(C(=O)NCCCc3ccccc3)nn2CC1(C)C(=O)NC1CCCC1` (stereo not given) had an RP-LC retention time of 826 s.

`CC(Cc1ccco1)NC(=O)c1ccc(N2CCCCC2)c(S(=O)(=O)N2CCCCC2)c1` (stereo not given) gave an RP-LC retention time of 1190 s.

As for `CCOCCCNC(=O)c1cc2sccc2n1Cc1ccc(Cl)cc1`, the RP-LC retention time came to 1040 s.

With `Cc1ccc(-n2c(=O)c3c(cc(C)n3C)n(CC(=O)Nc3ccc(C)c(F)c3)c2=O)cc1`, the RP-LC retention time was determined as 931 s.

Take `COC[C@@H]1CN(c2cnccn2)C[C@H]1C(=O)NCC#N`: the RP-LC retention time was 546 s.

`Cc1cc2oc(C(=O)Nc3ccccc3[N+](=O)[O-])c(C)c2cc1C` returned an RP-LC retention time of 1090 s.

`CC1CCN(c2cnn(CC(=O)Nc3cccc(C(C)C)c3)c(=O)c2Cl)CC1`: the RP-LC retention time came to 1100 s.

In the case of `Cc1cc(NCc2ccccn2)nc(-n2cc([N+](=O)[O-])cn2)n1`, the RP-LC retention time worked out at 564 s.

`COc1cccc(CNC(=O)Cn2ccc3ccc(-c4nnc(C)o4)cc32)c1` returned an RP-LC retention time of 756 s.

In the case of `COc1ccccc1CNC(=O)CCc1nnc2c3cc(-c4ccccc4)nn3ccn12`, the RP-LC retention time stood at 750 s.

As for `CCCc1sc(NC(=O)Cn2nc3c(cc2=O)CCCC3)nc1C(=O)OC`, the RP-LC retention time came out at 840 s.

Turning to `Cn1c(C(=O)NCCCN2CCCC2=O)cc2c(=O)oc3ccccc3c21`, the RP-LC retention time turned out to be 668 s.

`Cc1ccc(CN2CC(n3c(C)cnc3-c3ccccc3)C2)s1` came in with an RP-LC retention time of 555 s.

For the compound `CCn1ccc2c(cc(C(=O)Nc3ccc(Br)cc3)n2C)c1=O`, the RP-LC retention time is 844 s.

As for `Cc1ccc2[nH]cc(CCN3CC(C(=O)Nc4ccccc4C)CC3=O)c2c1` (stereo not given), the RP-LC retention time is 798 s.

Turning to `O=C1NC(c2ccccc2)(C(F)(F)F)SC2=NCCCN12` (stereo not given), the RP-LC retention time amounted to 584 s.

Regarding `CC(C)C(=O)Oc1ccc(CO)cc1[C@H](CCN(C(C)C)C(C)C)c1ccccc1`, the RP-LC retention time was determined as 830 s.

The compound `Cc1ccc(NC(=O)C2CCCN(c3nccnc3Sc3ccc(C)cc3)C2)cc1` (stereo not given) yielded an RP-LC retention time of 1200 s.

Consider `Cc1nc(-c2csc(S(=O)(=O)N3CCC(C(=O)Nc4ccc(F)c(Cl)c4)CC3)c2)no1`, for which the RP-LC retention time is 1010 s.

Compound `COc1ccc(NC(=O)N2CC(N(C(=O)NC(C)C)C3CCOCC3)C2)cc1OC` displayed an RP-LC retention time of 598 s.

Take `Cc1cc(Br)ccc1NC(=O)Cn1cnc2nc3c(cc2c1=O)CCCC3`: the RP-LC retention time worked out at 777 s.

For `COc1ccc(NC(=O)Cc2nnc3ccc(C(=O)Nc4ccccc4)cn23)cc1`, the RP-LC retention time turned out to be 749 s.

In the case of `O=C1c2ccccc2C(=O)N1c1nc(-c2ccccc2)cs1`, the RP-LC retention time amounted to 864 s.

In turn, `O=C(c1ccc2ccnc(N3CCN(c4ccccc4)CC3)c2c1)N1CCC(N2CCCCC2)CC1` came in with an RP-LC retention time of 589 s.

Compound `CCn1nc(C)c(CCN(C)C(=O)Nc2ccccc2Br)c1C` had an RP-LC retention time of 705 s.

Compound `CCOC(=O)C1CCCN(c2ncnc3c2cnn3-c2ccccc2)C1` (stereo not given) yielded an RP-LC retention time of 1070 s.

`CC(C)n1c(=O)c(NCCCc2ccccc2)nc2ccncc21` showed an RP-LC retention time of 707 s.

`CCCN1C(=O)c2ccccc2Sc2cc(-c3noc(CNC(=O)c4cccs4)n3)ccc21` returned an RP-LC retention time of 999 s.

`COc1ccc(C(=O)NC2(c3nc(-c4ccncc4)no3)CCCCC2)cc1OC`: the RP-LC retention time stood at 827 s.

Compound `COC(=O)c1ccccc1Nc1c(-c2ccc(SC)cc2)nc2cnccn12` registered an RP-LC retention time of 1070 s.

The compound `CCc1nc(-c2nnn(-c3ccc(F)cc3)c2C)no1` showed an RP-LC retention time of 874 s.

Compound `Nc1nc(CC(=O)Nc2ccc(CCNC[C@H](O)c3ccccc3)cc2)cs1` came in with an RP-LC retention time of 591 s.

As to `CCc1ccc2c(c1)cc(S(=O)(=O)c1ccccc1)c(=O)n2CC(=O)NCc1ccc(F)cc1`, the RP-LC retention time was 971 s.

The compound `COc1ccc(Cc2nc3ccccc3n2CC(=O)N2CCCCCC2)cc1OC` came in with an RP-LC retention time of 653 s.

`CC(=O)N1CCc2cc(-c3ccc(C(=O)N4CCN(C(=O)c5ccco5)CC4)cc3)ccc21`: the RP-LC retention time was 662 s.

Compound `O=C(Nc1ccc(C2(C(=O)NCc3ccc(F)cc3Cl)CCC2)cc1)C1CC1` returned an RP-LC retention time of 898 s.

In the case of `Cc1cc(C)cc(NC(=O)C2CCN(C(=O)c3ncn4c3COC(c3ccccc3)C4)CC2)c1` (stereo not given), the RP-LC retention time turned out to be 856 s.

`O=C(Nc1ccc2c(c1)OCO2)N(Cc1ccsc1)CC(F)(F)F` came in with an RP-LC retention time of 858 s.

For `O=C(NCc1ccccc1)c1ccc2ncnc(N3CCCC3)c2c1`, the RP-LC retention time came to 613 s.

As for `COC(=O)c1ccccc1NC(=O)Cn1c(=O)n(-c2ccc(F)cc2)c(=O)c2c1cc(C)n2C`, the RP-LC retention time was determined as 933 s.

Turning to `CCOC(=O)Cc1ccc(NC(=O)N2CCC(n3c(C)nc4cccnc43)C2)cc1` (stereo not given), the RP-LC retention time worked out at 598 s.

In the case of `COCCN1C(=O)c2cccn2CC1CNC(=O)Cn1nc(C(F)(F)F)cc1C` (stereo not given), the RP-LC retention time stood at 703 s.

As to `COc1ccc(OC)c2sc(N3CCN(S(=O)(=O)c4cccs4)CC3)nc12`, the RP-LC retention time was found to be 896 s.

In the case of `Cc1ccc(C2Cn3cnc(C(=O)N4CCC(C(=O)NCc5ccccc5C)CC4)c3CO2)cc1` (stereo not given), the RP-LC retention time was 810 s.

For `O=C(NC1CC1)c1ccc(OCC2CCN(C(=O)c3ccc(F)c(Cl)c3)CC2)cc1`, the RP-LC retention time turned out to be 870 s.

In turn, `CCCn1cc(CCNC(=O)c2cc3ccccc3[nH]2)c2cccnc21` gave an RP-LC retention time of 794 s.

In turn, `COc1ccc(NC(=O)N2[C@H]3CC[C@@H]2c2cncnc2C3)c(OC)c1` registered an RP-LC retention time of 639 s.

In the case of `COc1ccc(OC)c(CNC(=O)c2cnc(OC)nc2)c1`, the RP-LC retention time stood at 700 s.

In the case of `CCC1(CC)NC(=O)N(CC(=O)Nc2ccc(F)cc2F)C1=O`, the RP-LC retention time stood at 677 s.

Compound `CCCC(=O)NCCn1c(=O)n(Cc2ccc(C)cc2)c2cccnc21` displayed an RP-LC retention time of 759 s.

`N#Cc1cc(NC(=O)c2ccc3c(c2)OCO3)ccc1N1CC2CC(C1)c1cccc(=O)n1C2` (stereo not given) had an RP-LC retention time of 749 s.

Compound `O=C1Nc2ccccc2SC1C(=O)N1CCC(C(=O)N2CC=C(c3ccccc3)CC2)CC1` (stereo not given) yielded an RP-LC retention time of 831 s.

Compound `CC(C)NC(=O)N(C1CC1)C1CCOC2(CCN(C(=O)C3(c4ccccc4)CC3)CC2)C1` (stereo not given) yielded an RP-LC retention time of 865 s.

With `CCOc1ccc(CC(=O)N2CCc3cc(-c4csc(C)n4)ccc32)cc1`, the RP-LC retention time was 1060 s.

Compound `Cc1ccc2cc(CCC(=O)NCc3ccc(N4CCOCC4)cc3)c(=O)[nH]c2c1` yielded an RP-LC retention time of 655 s.

In turn, `O=c1c(O[C@@H]2O[C@H](CO)[C@H](O)[C@H](O)[C@H]2O)c(-c2ccc(O)c(O)c2)oc2cc(O)cc(O)c12` yielded an RP-LC retention time of 656 s.

`O=C(Nc1cc(F)ccc1F)C1CCN(S(=O)(=O)c2cccnc2)CC1`: the RP-LC retention time worked out at 784 s.

On to `CCCCC(=O)N1CCN(C2CCN(CCOC)C2=O)CC1` (stereo not given), for which the RP-LC retention time is 535 s.

For the compound `Cc1ccc(-c2nccn3cc(C(=O)N4CCOCC4)nc23)cc1`, the RP-LC retention time is 748 s.

Compound `Cc1ccc(-n2nc(N3CCCC(C(=O)NCc4ccc(F)cc4)C3)ccc2=O)cc1Cl` (stereo not given) yielded an RP-LC retention time of 929 s.

`Cc1ccc(C)c(NC(=O)c2cnn3c2CCCC3)c1` gave an RP-LC retention time of 777 s.

Compound `Cc1ccc(-c2nc3ncccn3c2Nc2ccc(Cl)cc2)cc1` yielded an RP-LC retention time of 827 s.

For the compound `Cc1cc2ncn(S(=O)(=O)N3CCCC3)c2cc1C`, the RP-LC retention time was found to be 837 s.

Compound `CCn1nccc1-c1cccc(-c2noc(-c3cc(Cl)ccc3F)n2)c1` had an RP-LC retention time of 1300 s.
